Laboratory results from patent US6716826B2, “Compounds and their uses” (Rodaris Pharmaceuticals Limited, priority 2000, dated 2004).

Columns and labels:
PDH phosphatase = assay: PDH activation assay; assay type: biochemical
Description: (§1) Methods for obtaining A-type and P-type mediators are set out in Caro et al, 1997, and in WO98/11116 and WO98/11117. Protocols for determining characteristic IPG biological activities such as PDH activation, PKA inhibition, acetylCoA activation, fructose-1,6-bis-phosphatase activity and lipogenesis are well known in the art, e.g. as described in Caro et al ^[14].
(§2) The compounds of the invention can be tested for one or more the characteristic IPGP and/or IPG-A activities mentioned above to determine whether they will be suitable for use a IPG mimetics or antagonists. Preferred assays measure the effect of the compounds on PDH phosphatasc, PKA or lipogenesis. Protocols for these assays are provided in Caro et al ^[14].

PKA = PKA inhibition assay; assay type: biochemical
Description: as §1, §2

PDH activation at 100 μM (PDH phosphatase) [%]	SMILES	PKA inhibition at 0.1 μM (PKA) [%]
14	NC1C(OC2C(O)C(O)C(O)C(O)C2O)OC(CO)C(OC2OC(CO)C(O)C(O)C2O)C1O [RGL1021, O-(α-D-galactopyranosyl)-(1-4)-(2-amino-2-deoxy-α-D-glucopyranosyl)-(1-6)-D-chiro-inositol]	
	NC1C(OC2C(O)C(O)C(O)C(O)C2O)OC(CO)C(OC2OC(CO)C(O)C(O)C2O)C1O [RGL1014, O-α-D-Galactopyranosyl-(1-4)-(2-amino-2-deoxy-α-D-glucopyranosyl)-(1-6)-D-myo-inositol]	2
	NC1C(OC2C(O)C(O)C(O)C(O)C2OP(=O)(O)O)OC(CO)C(OC2OC(CO)C(O)C(O)C2O)C1O [RGL1022, O-α-D-galactopyranosyl-(1-4)-2-ammonio-2-deoxy-α-D-glucopyranosyl-(1-6)-D-chiro-inositol-1-phosphate]	47
